These results are taken from article PMC10714930, “In silico virtual screening for the identification of novel inhibitors against dihydrodipicolinate reductase (DapB) of Mycobacterium tuberculosis, a key enzyme of diaminopimelate pathway” (Microbiology Spectrum, 2023).

The target of experiment [1] is DapA and DapB (purified enzymes) (Mycobacterium tuberculosis, UniProt P9WP25). Type of experiment: biochemical. The note with it: coupled enzyme assay, Michaelis-Menten plot.
In experiment [2] the test system is M. tb H37Rv. Description: Checkerboard assay of B59 with B20. Type of experiment: cell-based, Mycobacterium tuberculosis.
Another experiment concerns the target M. tb DapB (Mycobacterium tuberculosis, UniProt P9WP23). The experiment can be described thus: Dihydrodipicolinate reductase (DapB)-coupled enzymatic assay. Type of experiment: biochemical.
Experiment [3] deals with M. tb H37Rv. Description: M. tb whole cell growth inhibition by resazurin microtiter assay. It counts as cell-based, Mycobacterium tuberculosis. In general terms: Resazurin is reduced to fluorescent resorufin, in cell work by metabolically active cells.
Experiment [4] has as its system M. tb H37Rv inside THP-1 macrophages. Description: Intracellular inhibition assay in THP-1 macrophages. It counts as cell-based. The note with it: Mycobacterium tuberculosis, 120 h, CFU enumeration after 5 days of infection.
The next experiment relates to mycobacterial DapB. Further details: method as in PMID 12962488. The settings on record: cited from earlier work.

In brackets after ≈: the same amount, converted by molar mass.

DapA and DapB (purified enzymes), sequence (P9WP25 whole entry, looked up): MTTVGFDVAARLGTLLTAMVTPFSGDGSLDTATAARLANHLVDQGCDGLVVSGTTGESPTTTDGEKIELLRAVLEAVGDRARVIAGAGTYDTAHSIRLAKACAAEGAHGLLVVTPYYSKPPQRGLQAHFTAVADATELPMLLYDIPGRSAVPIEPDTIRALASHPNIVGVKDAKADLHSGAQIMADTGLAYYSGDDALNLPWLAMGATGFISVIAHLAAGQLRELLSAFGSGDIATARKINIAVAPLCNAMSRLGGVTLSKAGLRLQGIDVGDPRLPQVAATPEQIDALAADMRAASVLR
M. tb DapB, sequence (P9WP23 whole entry, looked up): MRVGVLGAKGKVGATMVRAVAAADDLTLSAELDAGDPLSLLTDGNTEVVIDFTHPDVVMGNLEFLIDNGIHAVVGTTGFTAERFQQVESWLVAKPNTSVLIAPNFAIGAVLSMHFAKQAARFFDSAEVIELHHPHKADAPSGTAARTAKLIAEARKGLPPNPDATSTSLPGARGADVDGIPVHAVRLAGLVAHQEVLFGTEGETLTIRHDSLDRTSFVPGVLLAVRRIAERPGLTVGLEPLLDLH
Procedure for M. tb DapB: The enzymatic assay of DapB is a coupled assay which requires the upstream enzyme DapA. The formation of tetrahydrodipicolinate by DapB was measured by monitoring conversion of NADPH to NADP^+ spectrophotometrically at 340 nm. The substrate of DapB, i.e., 2,4-dihydrodipicolinic acid, was prepared enzymatically through condensation of Aspartate Semialdehyde [(S)-ASA] and sodium pyruvate by DapA. The standard assay was performed in 50 mM sodium phosphate buffer (pH 7.5) consisting of 400 µM (S)-ASA, 160 µM NADPH, 500 µM sodium pyruvate, 3 µg DapB, and 5 µg DapA in a total reaction volume of 100 µL. […] The decrease in the absorbance of NADPH corresponding to the consumption of substrate was monitored at 340 nm after incubation for 10 minutes at room temperature. […] The activity of DapB in the presence of compounds was measured similarly; however, the enzyme was pre-incubated with the compounds for 10 minutes at 37°C. The percent activity for the samples in the presence of inhibitors was calculated by using a two-step method. Firstly, the absorbance values at 340 nm for each test sample (with or without the inhibitor) were normalized with the negative control (no substrate control). Subsequently, the percent activity was calculated by using the formula (normalized A340nm of inhibitor sample/normalized A340nm of no inhibitor sample) × 100. […]

For orientation: Km means the substrate concentration at which the rate is half of its maximum. Regarding `N[C@@H](CC=O)C(=O)O` [ASA, L-aspartate-β-semialdehyde], in experiment [1], the Km is 345 µM.

In general, IC50 refers to the midpoint of a concentration-inhibition curve. A higher IC50 goes with lower potency. Usually inhibition stands for the percentage by which the read-out fell short of the control. One may read the MIC99 as the lowest concentration that inhibits either 99% of growth or 99% of the strains tested, depending on the study. Take `COC(=O)CCCc1nc2ccccc2nc1N=Nc1ccccc1` [Compound B59, 4-(3-Phenylazoquinoxalin-2-yl) butanoic acid methyl ester]: the “fractional inhibitory concentration (FIC)” value with M. tb H37Rv [2] (MIC99 in combination / MIC99 alone) amounted to 0.062. Also, the “MIC99 of B59 in combination” value in the experiment with M. tb H37Rv [2] (in the presence of 20 µg/mL of compound B20) came to 1.25 µg/mL. This compound gave an IC50 on M. tb DapB (IC50 exhibited by compounds in biochemical assay, DapB enzymatic activity, compounds 10-100 µg/mL) of 32.9 µM. The inhibition at 100 µg/mL on M. tb DapB (at 100 µg/mL, read-out: inhibition of DapB enzyme activity) is more than 80%. Besides, in the experiment with M. tb H37Rv [3] (M. tb H37Rv, 7 days, resazurin and drop plating), the “MIC99 exhibited by compounds against M. tb growth” value is 20 µg/mL (≈ 59.8 µM). Besides, in the experiment on M. tb H37Rv [3] (Mycobacterium tuberculosis, 168 h, M. tb H37Rv, 7 days, resazurin and drop plating, read-out: MIC99 exhibited by compounds against M. tb growth), the MIC99 was 20 µg/mL (≈ 59.8 µM). In the experiment on M. tb H37Rv [3] (at 0.5X MIC99 and 0.25X MIC99), the “effect on bacterial growth by CFU enumeration” value is on record as “inhibition of the bacterial growth”. The MIC90 in experiment [4] came out at 73 µg/mL (≈ 218 µM).

For `NC(=O)C1=CN([C@@H]2O[C@H](COP(=O)(O)OP(=O)(O)OC[C@H]3O[C@@H](n4cnc5c(N)ncnc54)[C@H](O)[C@@H]3O)[C@@H](O)[C@H]2O)C=CC1` [NADH], in the experiment with mycobacterial DapB, the Km was 3.2 ± 0.4 µM.

Regarding `NC(=O)C1=CN([C@@H]2O[C@H](COP(=O)(O)OP(=O)(O)OC[C@H]3O[C@@H](n4cnc5c(N)ncnc54)[C@H](OP(=O)(O)O)[C@@H]3O)[C@@H](O)[C@H]2O)C=CC1` [NADPH], the Michaelis-Menten constant (Km) in the experiment on mycobacterial DapB is 11.8 ± 1.5 µM.

Consider `CC(=O)C(=O)O` [sodium pyruvate], for which, in experiment [1], the Km came to 125 µM.
